{"source": "patent US20220257595A1", "about": "“MACITENTAN FOR USE IN TREATING PORTOPULMONARY HYPERTENSION” (ACTELION PHARMACEUTICALS LTD, priority 2019, published 2022)", "key": {"patients with PoPH [1]": {"test_system": "patients with PoPH", "test": "PORTICO: 6-minute walk test (6MWD)", "assay_type": "in vivo, human", "protocol": "(iv) 6-minute walk test, including Borg dyspnea index: The 6MWT was performed at Screening, Baseline (Visit 2/Randomization), and then every Visit until EOT-DB or EOT-OL, whichever came last. It is a non-encouraged test that measures the distance walked by the patient in six minutes. It is important that for each individual patient the 6MWT was conducted under the same conditions throughout the study (e.g., same location, same tester, same time of day, with or without nasal oxygen therapy and where applicable with same flow rate as Baseline). The Borg dyspnea index was evaluated after each 6MWT. It rates dyspnea on a scale from 0 to 10.\n(§1) Handling of missing data: For change from baseline to Weeks 4, 8 and 12 in 6MWD and WHO FC, the last available value (including baseline) was carried forward unless the patient died before, or on Day 42, 70, 98 (the upper limit treatment days of Weeks 4, 8 and 12 windows, respectively), in which case the following rules considering worst case were used to replace all the missing values from the week after death up to Week 12: • For 6MWD, worst fixed value was set to 0, • For WHO FC, worst fixed value was set to class IV, • For change from baseline to Week 12 in NT-proBNP, the same imputation rule as for PVR was applied as described herein.\n(§2) Statistical analysis: The change from baseline to Week 12 in mRAP, mPAP, cardiac index, TPR and SVO2 were analyzed on the FAS (with imputation) using an ANCOVA with factors for treatment group, background PAH-specific therapy at baseline (Yes/No as per IXRS, randomization stratification factor), region (Europe/North America/Latin America as per IXRS, randomization stratification factor) and a covariate for baseline corresponding variable. Other RHC variables are listed only. WHO FC is summarized on the FAS (with imputation) by time point and treatment group using frequency tables. Changes from baseline in WHO FC were dichotomized as worsening (i.e., change >0) versus no change or improvement (i.e., change ≤0). Worsening was analyzed using a logistic regression model (exact) with covariates for treatment group, background PAH-specific therapy at baseline (Yes/No as per IXRS, randomization stratification factor) and region (Europe/North America/Latin America as per IXRS, randomization stratification factor). 6MWD is summarized on the FAS (with imputation) by time point and treatment group using descriptive statistics. Change from baseline to each time point is summarized similarly. Change from baseline in 6MWD (up to Week 12) was analyzed using a mixed-effect model repeated measure (MMRM) with factors for treatment group, time point, treatment by time interaction, background PAH-specific therapy at baseline (Yes/No as per IXRS, randomization stratification factor) and region (Europe/North America/Latin America as per IXRS, randomization stratification factor), and covariates for baseline 6MWD and WHO FC. An unstructured covariance matrix was used to account for the correlation between repeated measurements from the same patient. NT-proBNP is summarized on the FAS (with imputation) by time point and treatment group using descriptive statistics as well as geometric means and CVs. The ratio of Week 12 to baseline NT-proBNP is summarized similarly. The ratio versus baseline in NT-proBNP was log-transformed and analyzed using an ANCOVA with covariates for treatment group, background PAH-specific therapy at baseline (Yes/No as per IXRS, randomization stratification factor), region (Europe/North America/Latin America as per IXRS, randomization stratification factor) and baseline log NT-proBNP.\nSupportive/sensitivity analyses: The main MMRM model analysis for 6MWD was also performed without stratification factors. […]"}, "patients with PoPH [2]": {"test_system": "patients with PoPH", "test": "PORTICO: WHO functional class", "assay_type": "in vivo, human", "protocol": "(iii) WHO functional class: WHO FC was evaluated at Screening, Baseline (Visit 2/Randomization), and then every visit until EOT-DB or EOT-OL, whichever came last.\nas §1, §2\nMacitentan treatment period: Changes from macitentan baseline to each time point in WHO FC, 6MWD, NT-pro BNP and Borg dyspnea index (related to the macitentan treatment period) are summarized for the MTS using descriptive statistics."}, "[3]": {"conditions": "10 mg o.d., FAS with imputation, N=43"}, "[4]": {"conditions": "MTS without imputation, macitentan in both DB and OL periods"}, "[5]": {"conditions": "MTS without imputation, macitentan only in OL period (DB placebo patients)"}}, "data": [{"smiles": "CCCNS(=O)(=O)Nc1ncnc(OCCOc2ncc(Br)cn2)c1-c1ccc(Br)cc1", "note": "[macitentan, N-[5-(4-Bromophenyl)-6-[2-[(5-bromo-2-pyrimidinyl)oxy]ethoxy]-4-pyrimidinyl]-N′-propylsulfamide]", "values": [{"measurement": "6MWD at Week 4, mean ± SD", "setting": "patients with PoPH [1]; [3]", "value": "392.5 ± 93.74", "unit": "m"}, {"measurement": "6MWD at Week 8, mean ± SD", "setting": "patients with PoPH [1]; [3]", "value": "390.3 ± 99.35", "unit": "m"}, {"measurement": "6MWD at Week 12, mean ± SD", "setting": "patients with PoPH [1]; [3]", "value": "392.2 ± 98.46", "unit": "m"}, {"measurement": "Change from baseline to Week 4 in 6MWD, mean ± SD", "setting": "patients with PoPH [1]; [3]", "value": "6.7 ± 44.55", "unit": "m"}, {"measurement": "Change from baseline to Week 8 in 6MWD, mean ± SD", "setting": "patients with PoPH [1]; [3]", "value": "4.5 ± 67.40", "unit": "m"}, {"measurement": "Change from baseline to Week 12 in 6MWD, mean ± SD", "setting": "patients with PoPH [1]; [3]", "value": "6.4 ± 65.74", "unit": "m"}, {"measurement": "LS mean difference (macitentan-placebo), change in 6MWD to Week 12, ANCOVA sensitivity analysis", "setting": "patients with PoPH [1]; FAS", "value": 10.05, "unit": "m"}, {"measurement": "Difference in LS means macitentan-placebo, change in 6MWD at Week 4", "setting": "patients with PoPH [1]; MMRM, FAS", "value": 23.02, "unit": "m"}, {"measurement": "Difference in LS means macitentan-placebo, change in 6MWD at Week 8", "setting": "patients with PoPH [1]; MMRM, FAS", "value": 14.47, "unit": "m"}, {"measurement": "Difference in LS means macitentan-placebo, change in 6MWD at Week 12", "setting": "patients with PoPH [1]; MMRM, FAS", "value": 9.73, "unit": "m"}, {"measurement": "Difference in LS means macitentan-placebo, change in 6MWD, overall", "setting": "patients with PoPH [1]; MMRM, FAS, Weeks 4-12 overall", "value": "Overall: 15.74 m"}, {"measurement": "Mean (±SD) change from baseline in 6MWD at Week 4", "setting": "patients with PoPH [1]; [4]", "value": "7.0±45.62", "unit": "m"}, {"measurement": "Mean (±SD) change from baseline in 6MWD at Week 24", "setting": "patients with PoPH [1]; [4]", "value": "22.0±42.55", "unit": "m"}, {"measurement": "Mean (±SD) change from macitentan baseline in 6MWD at Week 4", "setting": "patients with PoPH [1]; [5]", "value": "11.5±31.67", "unit": "m"}, {"measurement": "Mean (±SD) change from macitentan baseline in 6MWD at Week 12", "setting": "patients with PoPH [1]; [5]", "value": "13.9±39.27", "unit": "m"}, {"measurement": "Mean (±SD) observed difference at Week 12 (macitentan-placebo) in 6MWD", "setting": "patients with PoPH [1]; no imputation", "value": 18.4, "unit": "m"}, {"measurement": "Increase in walk distance from baseline to Week 24", "setting": "patients with PoPH [1]; patients originally randomised to macitentan, followed into open-label period", "value": 20, "unit": "m"}, {"measurement": "WHO FC Class I at Week 12, total", "setting": "patients with PoPH [2]; FAS with imputation, N=43", "value": "3 (7.0) n (%)"}, {"measurement": "WHO FC Class II at Week 12, total", "setting": "patients with PoPH [2]; FAS with imputation, N=43", "value": "27 (62.8) n (%)"}, {"measurement": "WHO FC Class III at Week 12, total", "setting": "patients with PoPH [2]; FAS with imputation, N=43", "value": "13 (30.2) n (%)"}, {"measurement": "WHO FC Class IV at Week 12, total", "setting": "patients with PoPH [2]; FAS with imputation, N=43", "value": "0 n (%)"}, {"measurement": "WHO FC Improved, baseline to Week 12", "setting": "patients with PoPH [2]; FAS with imputation, N=43", "value": "9 (20.9) n (%)"}, {"measurement": "WHO FC Not Worsened, baseline to Week 12", "setting": "patients with PoPH [2]; FAS with imputation, N=43", "value": "37 (86.0) n (%)"}, {"measurement": "WHO FC Unchanged, baseline to Week 12", "setting": "patients with PoPH [2]; FAS with imputation, N=43", "value": "28 (65.1) n (%)"}, {"measurement": "WHO FC Worsened, baseline to Week 12", "setting": "patients with PoPH [2]; FAS with imputation, N=43", "value": "6 (14.0) n (%)"}, {"measurement": "WHO FC shift: baseline Class I to Week 12 Class I", "setting": "patients with PoPH [2]; FAS with imputation, N=43", "value": "1 (2.3) n (%)"}, {"measurement": "WHO FC shift: baseline Class I to Week 12 Class II", "setting": "patients with PoPH [2]; FAS with imputation, N=43", "value": "0 n (%)"}, {"measurement": "WHO FC shift: baseline Class I to Week 12 Class III", "setting": "patients with PoPH [2]; FAS with imputation, N=43", "value": "0 n (%)"}, {"measurement": "WHO FC shift: baseline Class I to Week 12 Class IV", "setting": "patients with PoPH [2]; FAS with imputation, N=43", "value": "0 n (%)"}, {"measurement": "WHO FC shift: baseline Class II to Week 12 Class I", "setting": "patients with PoPH [2]; FAS with imputation, N=43", "value": "1 (2.3) n (%)"}, {"measurement": "WHO FC shift: baseline Class II to Week 12 Class II", "setting": "patients with PoPH [2]; FAS with imputation, N=43", "value": "20 (46.5) n (%)"}, {"measurement": "WHO FC shift: baseline Class II to Week 12 Class III", "setting": "patients with PoPH [2]; FAS with imputation, N=43", "value": "6 (14.0) n (%)"}, {"measurement": "WHO FC shift: baseline Class II to Week 12 Class IV", "setting": "patients with PoPH [2]; FAS with imputation, N=43", "value": "0 n (%)"}, {"measurement": "WHO FC shift: baseline Class III to Week 12 Class I", "setting": "patients with PoPH [2]; FAS with imputation, N=43", "value": "1 (2.3) n (%)"}, {"measurement": "WHO FC shift: baseline Class III to Week 12 Class II", "setting": "patients with PoPH [2]; FAS with imputation, N=43", "value": "7 (16.3) n (%)"}, {"measurement": "WHO FC shift: baseline Class III to Week 12 Class III", "setting": "patients with PoPH [2]; FAS with imputation, N=43", "value": "7 (16.3) n (%)"}, {"measurement": "WHO FC shift: baseline Class III to Week 12 Class IV", "setting": "patients with PoPH [2]; FAS with imputation, N=43", "value": "0 n (%)"}, {"measurement": "Patients with no change in WHO FC at Week 12", "setting": "patients with PoPH [2]; FAS, macitentan group", "value": 65.1, "unit": "%"}, {"measurement": "Patients with worsening in WHO FC at Week 12", "setting": "patients with PoPH [2]; FAS, macitentan group, 6 patients (4 imputed)", "value": 14.0, "unit": "%"}, {"measurement": "Patients with improvement in WHO FC at Week 12", "setting": "patients with PoPH [2]; FAS, macitentan group, 9 patients", "value": 20.9, "unit": "%"}, {"measurement": "Patients with worsening in WHO FC at Week 24", "setting": "patients with PoPH [2]; MTS without imputation, macitentan in both periods, 2/34", "value": 5.9, "unit": "%"}, {"measurement": "Patients with no change in WHO FC at Week 24", "setting": "patients with PoPH [2]; MTS without imputation, macitentan in both periods, 21/34", "value": 61.8, "unit": "%"}, {"measurement": "Patients with worsening in WHO FC at Week 12 after macitentan initiation in OL period", "setting": "patients with PoPH [2]; MTS without imputation, vs macitentan baseline, 3/35", "value": 8.6, "unit": "%"}, {"measurement": "Patients with no change in WHO FC at Week 12 after macitentan initiation in OL period", "setting": "patients with PoPH [2]; MTS without imputation, vs macitentan baseline, 24/35", "value": 68.6, "unit": "%"}]}]}
